Target: human KAT6A (Homo sapiens (Human), UniProt Q92794)
Test: KAT6 enzyme activity assay (AlphaScreen method), KAT6A
Format: biochemical
Conditions: inhibition of the enzyme human KAT6A
Text: Test Example 1: KAT6 Enzyme Activity Assay (AlphaScreen Method)
I. Reagents and instrument • 1. KAT6A (customized by Chempartner) • 2. Ovalbumin (Sigma-Aldrich, A5378-5G) • 3. 2 M Tris-HCl solution, pH 7.8, sterile (Sangon, B548140-0500) • 4. 5 M NaCl solution (Sangon, B548121-0100) • 5. EDTA (0.5 M), pH 8.0, RNase-free (Thermofisher, AM9260G) • 6. Tween-20 (Sangon, A100777-0500) • 7. DTT, 1 M (Invitrogen, P2325) • 8. Acetyl coenzyme A (Ac-CoA, CAYMAN, Cat. No. 16160) • 9. Recombinant histone H3.1 biotinylated (human) (Active Motif 31696) • 10. 384-well plate, light gray (Perkin Elmer, Cat. No. 6005350) • 11. Anacardic acid (MCE, Cat. No. HY—N2020) • 12. AlphaScreen streptavidin donor beads, 5 mg (PerkinElmer, 6760002) • 13. AlphaScreen protein A acceptor beads, 5 mg (PerkinElmer, 6760137M) • 14. Acetylated-lysine antibody #9441 (CST 9441S) • 15. PHERA star microplate reader (BMG labtech) • II. Experimental method
a. 1× assay buffer: 100 mM Tris-HCl, pH 7.8; 15 mM NaCl; 1 mM EDTA; 0.01% tween-20; 1 mM DTT; 0.01% m/v ovalbumin.
b. KAT enzyme solution: 1.25 nM (final concentration), prepared in 1× assay buffer.
c. Mixed substrate of Ac-CoA and H3: a mixed substrate of 1000 nM (final concentration) Ac-CoA and 55 nM (final concentration) H3, prepared in 1× assay buffer.
d. Compounds: initial concentration of 100 μM, 3-fold dilution, 10 gradient concentrations. All compound concentrations were diluted 83-fold with 1× assay buffer for later use.
e. Assay reagent: 8 ng/μL (final concentration) AlphaScreen protein A acceptor beads, 8 ng/μL AlphaScreen streptavidin donor beads, 1:1500 diluted acetylated-lysine antibody, and 100 μM anacardic acid; prepared in 1× assay buffer.
2. Experimental Procedure
a. The prepared enzyme solution was added to a 384-well plate at 3 μL/well, and 3 μL of 1× assay buffer was added to each well in columns 23 and 24 (Min).
b. 3 μL of compound solution was added to each well, and 3 μL of buffer was added to each Min well; 3 μL of DMSO solution was added to each well in columns 1 and 2 (Max) as controls. The plate was centrifuged, shaken for 2 min, and incubated at room temperature for 15 min.
c. The mixed substrate of Ac-CoA and H3 was added at 6 μL/well, and the plate was centrifuged, shaken for 2 min, and incubated at room temperature for 20 min.
d. The assay reagent was added at 6 μL/well, and the plate was centrifuged, shaken for 2 min, and incubated in the dark at room temperature for 120 min.
e. Plate reading was performed on the microplate reader, and AlphaScreen counts were recorded.
f. Plotting was performed using the Graphpad software, and the IC50 values of the compounds were calculated.

Sequence of human KAT6A (Q92794 whole entry): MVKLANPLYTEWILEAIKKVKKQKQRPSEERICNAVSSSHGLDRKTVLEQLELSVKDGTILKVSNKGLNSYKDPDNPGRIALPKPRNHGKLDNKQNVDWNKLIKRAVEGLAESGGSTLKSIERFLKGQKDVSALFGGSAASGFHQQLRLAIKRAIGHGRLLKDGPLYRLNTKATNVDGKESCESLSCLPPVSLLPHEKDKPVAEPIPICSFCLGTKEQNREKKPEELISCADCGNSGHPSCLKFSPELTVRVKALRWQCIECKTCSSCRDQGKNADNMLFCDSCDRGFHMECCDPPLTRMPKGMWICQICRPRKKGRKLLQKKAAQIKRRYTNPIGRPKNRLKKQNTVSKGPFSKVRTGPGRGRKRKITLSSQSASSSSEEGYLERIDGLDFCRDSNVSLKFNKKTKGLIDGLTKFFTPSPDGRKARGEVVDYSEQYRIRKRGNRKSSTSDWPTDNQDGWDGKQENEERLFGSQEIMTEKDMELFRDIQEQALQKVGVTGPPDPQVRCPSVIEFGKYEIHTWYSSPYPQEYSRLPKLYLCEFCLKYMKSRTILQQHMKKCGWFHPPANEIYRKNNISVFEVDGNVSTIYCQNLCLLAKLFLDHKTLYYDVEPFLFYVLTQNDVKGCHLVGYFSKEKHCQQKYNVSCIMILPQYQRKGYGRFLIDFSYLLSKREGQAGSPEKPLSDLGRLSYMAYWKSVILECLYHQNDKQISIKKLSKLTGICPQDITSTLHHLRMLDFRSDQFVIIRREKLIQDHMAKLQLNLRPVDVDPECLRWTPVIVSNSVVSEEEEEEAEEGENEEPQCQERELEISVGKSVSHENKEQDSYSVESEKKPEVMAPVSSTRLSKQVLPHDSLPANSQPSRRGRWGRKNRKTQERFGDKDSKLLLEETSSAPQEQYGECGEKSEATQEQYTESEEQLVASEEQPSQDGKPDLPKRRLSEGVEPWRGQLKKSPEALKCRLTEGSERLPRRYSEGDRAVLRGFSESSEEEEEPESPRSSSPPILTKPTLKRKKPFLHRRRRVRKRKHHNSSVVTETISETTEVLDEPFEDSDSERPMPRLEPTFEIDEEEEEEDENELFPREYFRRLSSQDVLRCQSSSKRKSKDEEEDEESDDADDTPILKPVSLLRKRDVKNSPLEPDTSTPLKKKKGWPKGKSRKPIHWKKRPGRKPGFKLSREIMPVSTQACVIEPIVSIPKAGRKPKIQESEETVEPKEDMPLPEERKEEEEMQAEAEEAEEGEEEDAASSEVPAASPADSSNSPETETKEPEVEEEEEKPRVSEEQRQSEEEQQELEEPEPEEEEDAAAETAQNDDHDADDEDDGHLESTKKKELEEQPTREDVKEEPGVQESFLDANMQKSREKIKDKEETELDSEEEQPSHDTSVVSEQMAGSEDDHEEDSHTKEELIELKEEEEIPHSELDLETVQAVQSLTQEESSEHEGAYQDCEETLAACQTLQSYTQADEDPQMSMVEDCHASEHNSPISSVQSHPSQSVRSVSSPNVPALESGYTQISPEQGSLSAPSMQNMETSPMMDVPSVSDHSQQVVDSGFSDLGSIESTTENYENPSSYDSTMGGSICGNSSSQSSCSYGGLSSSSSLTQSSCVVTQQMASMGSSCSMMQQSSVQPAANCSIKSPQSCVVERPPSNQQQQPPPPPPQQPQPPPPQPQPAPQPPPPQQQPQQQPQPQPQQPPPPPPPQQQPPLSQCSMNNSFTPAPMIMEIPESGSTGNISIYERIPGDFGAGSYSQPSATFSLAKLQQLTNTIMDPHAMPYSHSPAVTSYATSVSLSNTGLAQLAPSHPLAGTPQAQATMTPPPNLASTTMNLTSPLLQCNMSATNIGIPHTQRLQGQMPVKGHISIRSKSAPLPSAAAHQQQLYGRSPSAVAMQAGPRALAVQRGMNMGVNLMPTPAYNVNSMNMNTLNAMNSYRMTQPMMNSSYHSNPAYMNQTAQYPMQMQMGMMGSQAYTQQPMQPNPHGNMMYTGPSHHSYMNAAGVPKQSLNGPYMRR

Row | IC50 [nM] | Compound
1 | 12.5 | O=S(=O)(Nc1noc2cc(Cn3cccn3)c3c(c12)OCCC3)c1cccc2c1OCC2 [Compound 12, N-(5-((1H-pyrazol-1-yl)methyl)-3,4-dihydro-2H-chromeno[8,7-d]isoxazol-9-yl)-2,3-dihydrobenzofuran-7-sulfonamide]
2 | 0.3 | CCc1ccc(S(=O)(=O)Nc2noc3cc(Cn4cccn4)c4c(c23)OCCC4)c(OC)c1 [Compound 13, N-(5-((1H-pyrazol-1-yl)methyl)-3,4-dihydro-2H-chromeno[8,7-d]isoxazol-9-yl)-4-ethyl-2-methoxybenzenesulfonamide]
3 | 1.2 | COc1cc2c(cc1S(=O)(=O)Nc1noc3cc(Cn4cccn4)c4c(c13)OCC4)CCC2 [Compound 15, N-(4-((1H-pyrazol-1-yl)methyl)-2,3-dihydrobenzofuro[7,6-d]isoxazol-8-yl)-6-methoxy-2,3-dihydro-1H-indene-5-sulfonamide]
4 | 1.9 | CCOc1cc(C)ccc1S(=O)(=O)Nc1noc2cc(Cn3cccn3)c3c(c12)OCC3 [Compound 16, N-(4-((1H-pyrazol-1-yl)methyl)-2,3-dihydrobenzofuro[7,6-d]isoxazol-8-yl)-2-ethoxy-4-methylbenzenesulfonamide]
5 | 10.5 | COc1cccc(C)c1S(=O)(=O)Nc1noc2cc(Cn3cccn3)c3c(c12)OCC3 [Compound 17, N-(4-((1H-pyrazol-1-yl)methyl)-2,3-dihydrobenzofuro[7,6-d]isoxazol-8-yl)-2-methoxy-6-methylbenzenesulfonamide]
6 | 12.5 | COc1ccc(C)cc1S(=O)(=O)Nc1noc2cc(Cn3cccn3)c3c(c12)OCC3 [Compound 18, N-(4-((1H-pyrazol-1-yl)methyl)-2,3-dihydrobenzofuro[7,6-d]isoxazol-8-yl)-2-methoxy-5-methylbenzenesulfonamide]
7 | 2.7 | COc1cc2c(cc1S(=O)(=O)Nc1noc3cc(Cn4cccn4)c4c(c13)OCC4)OCC2 [Compound 19, N-(4-((1H-pyrazol-1-yl)methyl)-2,3-dihydrobenzofuro[7,6-d]isoxazol-8-yl)-5-methoxy-2,3-dihydrobenzofuran-6-sulfonamide]
8 | 12.2 | COc1cccc(OC)c1S(=O)(=O)Nc1noc2cc(C3CCCO3)c3c(c12)OCC3 (stereo not drawn) [Compound 26, 2,6-dimethoxy-N-(4-(tetrahydrofuran-2-yl)-2,3-dihydrobenzofuro[7,6-d]isoxazol-8-yl)benzenesulfonamide]
9 | 5.2 | COc1cccc(OC)c1S(=O)(=O)Nc1noc2cc([C@H]3CCCO3)c3c(c12)OCC3 [Compound 26-1, (R)-2,6-dimethoxy-N-(4-(tetrahydrofuran-2-yl)-2,3-dihydrobenzofuro[7,6-d]isoxazol-8-yl)benzenesulfonamide]

From US20250145637A1, “SULFONAMIDE DERIVATIVE, PREPARATION METHOD THEREFOR AND MEDICAL USE THEREOF” (Jiangsu Hengrui Pharmaceuticals Co. Ltd., priority 2021, published 2025)
